Measurements taken from paper PMC3961306, “Comparison of the Cancer Gene Targeting and Biochemical Selectivities of All Targeted Kinase Inhibitors Approved for Clinical Use” (PLoS ONE, 2014).

What was measured:
Assay in all cases: Kinase profiling in a biochemical assay panel (mobility shift assays and ELISA), %-inhibition at 1 μM; selectivity entropy
[1] = target: T1, panel of more than 300 wild-type and mutant kinases (313 kinase panel) (Homo sapiens, UniProt Q8IW41)
T1 sequence (Q8IW41 1-473): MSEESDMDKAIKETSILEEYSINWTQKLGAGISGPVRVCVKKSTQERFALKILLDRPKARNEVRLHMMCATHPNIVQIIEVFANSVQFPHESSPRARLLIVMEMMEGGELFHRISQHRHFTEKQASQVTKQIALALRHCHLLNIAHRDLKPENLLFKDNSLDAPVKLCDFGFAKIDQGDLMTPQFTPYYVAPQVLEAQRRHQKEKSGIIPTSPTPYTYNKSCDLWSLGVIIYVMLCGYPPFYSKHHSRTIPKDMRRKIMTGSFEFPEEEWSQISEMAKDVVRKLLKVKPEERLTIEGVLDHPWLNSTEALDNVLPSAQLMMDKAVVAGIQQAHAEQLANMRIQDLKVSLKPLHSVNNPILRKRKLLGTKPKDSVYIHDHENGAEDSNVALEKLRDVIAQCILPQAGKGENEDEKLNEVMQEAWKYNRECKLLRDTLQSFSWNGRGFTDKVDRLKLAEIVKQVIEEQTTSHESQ

[2] = target: panel of more than 300 wild-type and mutant kinases (313 kinase panel) (Homo sapiens, UniProt O95819)
[3] = target: panel of more than 300 wild-type and mutant kinases (313 kinase panel) (Homo sapiens, UniProt P22455, N535K); conditions: kinase FGFR4(N535K); compound at 1 μM
panel of more than 300 wild-type and mutant kinases (313 kinase panel) (Homo sapiens, UniProt P22455, N535K), sequence (P22455 22-802 N535K): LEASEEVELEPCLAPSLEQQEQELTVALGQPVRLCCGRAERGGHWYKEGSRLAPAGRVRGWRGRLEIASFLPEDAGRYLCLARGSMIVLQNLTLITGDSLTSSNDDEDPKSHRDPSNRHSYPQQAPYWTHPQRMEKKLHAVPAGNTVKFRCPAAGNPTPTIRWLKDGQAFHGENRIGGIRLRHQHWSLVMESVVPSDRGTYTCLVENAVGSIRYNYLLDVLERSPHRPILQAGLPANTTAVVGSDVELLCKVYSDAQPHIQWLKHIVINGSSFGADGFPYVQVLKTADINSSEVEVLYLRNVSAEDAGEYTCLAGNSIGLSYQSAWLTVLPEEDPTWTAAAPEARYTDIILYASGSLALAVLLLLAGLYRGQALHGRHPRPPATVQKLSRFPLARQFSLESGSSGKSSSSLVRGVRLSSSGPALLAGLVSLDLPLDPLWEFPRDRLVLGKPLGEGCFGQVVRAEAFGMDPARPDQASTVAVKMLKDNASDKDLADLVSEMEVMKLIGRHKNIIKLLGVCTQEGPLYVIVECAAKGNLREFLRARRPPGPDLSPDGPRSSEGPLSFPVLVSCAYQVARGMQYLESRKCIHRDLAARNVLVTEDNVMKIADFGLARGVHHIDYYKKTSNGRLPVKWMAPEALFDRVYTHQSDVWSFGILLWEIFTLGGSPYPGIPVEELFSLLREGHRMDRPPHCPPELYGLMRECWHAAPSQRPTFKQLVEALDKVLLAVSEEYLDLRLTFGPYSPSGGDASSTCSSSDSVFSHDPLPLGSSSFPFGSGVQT

[4] = target: T2, panel of more than 300 wild-type and mutant kinases (313 kinase panel) (Homo sapiens, UniProt Q12851)
T2 sequence (Q12851 1-820): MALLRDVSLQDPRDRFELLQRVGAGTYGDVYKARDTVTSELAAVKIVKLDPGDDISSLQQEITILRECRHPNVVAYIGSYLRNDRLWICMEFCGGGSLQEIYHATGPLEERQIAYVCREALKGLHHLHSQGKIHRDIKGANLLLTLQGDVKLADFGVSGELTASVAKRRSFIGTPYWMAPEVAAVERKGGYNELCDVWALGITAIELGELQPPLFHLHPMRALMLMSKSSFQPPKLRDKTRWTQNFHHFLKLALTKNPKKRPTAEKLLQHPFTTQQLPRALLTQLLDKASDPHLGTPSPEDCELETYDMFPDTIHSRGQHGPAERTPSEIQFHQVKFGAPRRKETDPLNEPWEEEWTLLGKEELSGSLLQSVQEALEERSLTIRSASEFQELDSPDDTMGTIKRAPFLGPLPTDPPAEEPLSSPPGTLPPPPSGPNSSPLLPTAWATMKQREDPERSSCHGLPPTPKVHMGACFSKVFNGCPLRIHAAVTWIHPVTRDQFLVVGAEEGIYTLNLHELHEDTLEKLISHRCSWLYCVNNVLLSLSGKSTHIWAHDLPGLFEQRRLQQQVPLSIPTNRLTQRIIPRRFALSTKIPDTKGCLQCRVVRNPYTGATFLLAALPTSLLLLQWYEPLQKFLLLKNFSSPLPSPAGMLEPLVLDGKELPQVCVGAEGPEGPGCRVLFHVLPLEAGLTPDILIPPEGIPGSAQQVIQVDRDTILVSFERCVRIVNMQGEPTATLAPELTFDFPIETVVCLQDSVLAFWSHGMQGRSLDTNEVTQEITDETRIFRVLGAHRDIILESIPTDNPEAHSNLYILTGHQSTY

[5] = target: panel of more than 300 wild-type and mutant kinases (313 kinase panel) (Homo sapiens, UniProt P31751)
panel of more than 300 wild-type and mutant kinases (313 kinase panel) (Homo sapiens, UniProt P31751), sequence (P31751 whole entry, change not shown): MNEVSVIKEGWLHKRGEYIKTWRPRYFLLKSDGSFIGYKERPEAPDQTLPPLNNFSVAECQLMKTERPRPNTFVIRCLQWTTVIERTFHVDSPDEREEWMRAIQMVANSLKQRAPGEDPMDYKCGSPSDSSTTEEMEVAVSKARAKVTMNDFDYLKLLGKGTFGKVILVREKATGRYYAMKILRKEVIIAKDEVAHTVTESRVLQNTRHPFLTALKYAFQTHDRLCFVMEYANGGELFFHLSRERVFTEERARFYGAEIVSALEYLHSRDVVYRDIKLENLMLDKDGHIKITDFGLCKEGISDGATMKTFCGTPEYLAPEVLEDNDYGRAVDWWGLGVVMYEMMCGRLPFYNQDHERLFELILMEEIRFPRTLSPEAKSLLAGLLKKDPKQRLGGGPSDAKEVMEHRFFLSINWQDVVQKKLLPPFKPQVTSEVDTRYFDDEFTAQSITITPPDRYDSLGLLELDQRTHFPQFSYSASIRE

[6] = target: panel of more than 300 wild-type and mutant kinases (313 kinase panel) (Homo sapiens, UniProt P54646)
[7] = target: T3, panel of more than 300 wild-type and mutant kinases (313 kinase panel) (Homo sapiens, UniProt O14757)
T3 sequence (O14757 1-476): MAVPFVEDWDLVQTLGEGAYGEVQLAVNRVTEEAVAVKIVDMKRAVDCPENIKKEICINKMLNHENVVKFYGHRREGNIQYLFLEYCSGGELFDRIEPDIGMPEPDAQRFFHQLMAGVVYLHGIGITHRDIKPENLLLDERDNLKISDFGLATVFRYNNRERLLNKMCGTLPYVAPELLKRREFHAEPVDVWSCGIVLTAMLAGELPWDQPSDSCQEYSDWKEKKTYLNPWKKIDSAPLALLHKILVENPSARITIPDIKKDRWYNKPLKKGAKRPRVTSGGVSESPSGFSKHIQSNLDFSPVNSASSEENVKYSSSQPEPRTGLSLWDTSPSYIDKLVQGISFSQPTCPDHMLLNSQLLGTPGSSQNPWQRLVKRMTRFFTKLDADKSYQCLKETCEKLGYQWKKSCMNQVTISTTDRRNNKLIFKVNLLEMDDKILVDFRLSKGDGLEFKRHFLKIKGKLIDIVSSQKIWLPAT

[8] = target: panel of more than 300 wild-type and mutant kinases (313 kinase panel) (Homo sapiens, UniProt Q8IU85)
[9] = target: panel of more than 300 wild-type and mutant kinases (313 kinase panel) (Homo sapiens, UniProt P27448)
panel of more than 300 wild-type and mutant kinases (313 kinase panel) (Homo sapiens, UniProt P27448), sequence (P27448 whole entry, change not shown): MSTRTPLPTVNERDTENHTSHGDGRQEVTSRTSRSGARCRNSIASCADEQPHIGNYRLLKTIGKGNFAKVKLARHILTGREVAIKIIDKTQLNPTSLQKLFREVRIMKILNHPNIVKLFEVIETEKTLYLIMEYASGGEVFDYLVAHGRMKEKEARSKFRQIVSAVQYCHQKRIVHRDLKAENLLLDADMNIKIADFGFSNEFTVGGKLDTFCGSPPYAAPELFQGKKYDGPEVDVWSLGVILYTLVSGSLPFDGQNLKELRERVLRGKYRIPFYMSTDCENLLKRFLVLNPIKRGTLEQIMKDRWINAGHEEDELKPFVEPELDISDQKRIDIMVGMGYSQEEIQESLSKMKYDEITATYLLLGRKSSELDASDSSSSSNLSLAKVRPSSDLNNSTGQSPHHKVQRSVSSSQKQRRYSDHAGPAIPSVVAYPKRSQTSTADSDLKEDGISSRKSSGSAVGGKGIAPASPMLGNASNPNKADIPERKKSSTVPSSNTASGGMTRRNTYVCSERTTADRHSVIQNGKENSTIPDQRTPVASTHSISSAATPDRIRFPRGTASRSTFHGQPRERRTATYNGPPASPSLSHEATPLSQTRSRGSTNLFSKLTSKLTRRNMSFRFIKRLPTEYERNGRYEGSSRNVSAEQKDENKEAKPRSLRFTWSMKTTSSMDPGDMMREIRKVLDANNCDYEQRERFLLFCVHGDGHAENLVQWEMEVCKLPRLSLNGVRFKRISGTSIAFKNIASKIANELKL

[10] = kinase MAPKAPK5, compound at 1 μM
[11] = kinase MAP4K2, compound at 1 μM
[12] = kinase AMPKα2/β1/γ1, 1 μM compound

| SMILES | %-inhibition of MAPKAPK5 [1, 10] [%] | %-inhibition of HGK ([2]; kinase HGK, compound at 1 μM) [%] | %-inhibition of FGFR4(N535K) [3] [%] | %-inhibition of MAP4K2 [4, 11] [%] | %-inhibition, AKT2 ([5]; 1 µM) [%] | %-inhibition, AMPKα2/β1/γ1 [6, 12] [%] | %-inhibition, CHK1 ([7]; kinase CHK1, 1 μM compound) [%] | %-inhibition, CaMK1δ ([8]; kinase CaMK1δ, 1 μM compound) [%] | %-inhibition, AKT2 ([5]; kinase AKT2, 1 μM compound) [%] | %-inhibition of MARK3 ([9]; kinase MARK3, compound at 1 μM) [%] | %-inhibition of MAPKAPK5 ([1]; 1 µM) [%] | %-inhibition of HGK ([2]; 1 µM) [%] | %-inhibition, CaMK1δ ([8]; 1 µM) [%] | %-inhibition of MAP4K2 ([4]; 1 µM) [%] | %-inhibition of MARK3 ([9]; 1 µM) [%] | %-inhibition, AMPKα2/β1/γ1 ([6]; 1 µM) [%] | %-inhibition, CHK1 ([7]; 1 µM) [%] |
| --- | --- | --- | --- | --- | --- | --- | --- | --- | --- | --- | --- | --- | --- | --- | --- | --- | --- |
| COc1cc(Nc2c(C#N)cnc3cc(OCCCN4CCN(C)CC4)c(OC)cc23)c(Cl)cc1Cl [bosutinib] | 0 | 100 | 30 | 98 | -2.57 | 10 | 83 |  |  |  |  |  |  |  |  |  |  |
| C[C@@H](Oc1cc(-c2cnn(C3CCNCC3)c2)cnc1N)c1c(Cl)ccc(F)c1Cl [crizotinib] | -3.19 |  | 6.5 |  |  | 27 | 10 | -4 | -2.67 | 41 |  |  |  |  |  |  |  |
| CC(C)(C)c1nc(-c2cccc(NS(=O)(=O)c3c(F)cccc3F)c2F)c(-c2ccnc(N)n2)s1 [dabrafenib] |  | 7 | 8 | 8 |  |  |  |  |  | 4 |  |  |  |  |  |  |  |
| Cc1nc(Nc2ncc(C(=O)Nc3c(C)cccc3Cl)s2)cc(N2CCN(CCO)CC2)n1 [dasatinib] |  | 78 |  |  |  |  |  |  |  |  |  |  |  |  |  |  |  |
| C#Cc1cccc(Nc2ncnc3cc(OCCOC)c(OCCOC)cc23)c1 [erlotinib] |  |  |  |  | 8 |  |  |  |  |  | 1.53 | 50 | -3.68 | 9 | 9 | 4.43 | 14 |
| CS(=O)(=O)CCNCc1ccc(-c2ccc3ncnc(Nc4ccc(OCc5cccc(F)c5)c(Cl)c4)c3c2)o1 [lapatinib] | -2.68 |  |  | 11 |  |  | 12 | -4 | 4.61 |  |  | 1 |  |  | 3.43 | -7.39 |  |
| Cc1cn(-c2cc(NC(=O)c3ccc(C)c(Nc4nccc(-c5cccnc5)n4)c3)cc(C(F)(F)F)c2)cn1 [nilotinib] | -4.26 |  |  | 3.24 |  | -0.54 | -15 | 3.56 | 12 | 11 |  | 4 |  |  |  |  |  |
| Cc1ccc(Nc2nccc(N(C)c3ccc4c(C)n(C)nc4c3)n2)cc1S(N)(=O)=O [pazopanib] | -4 | 50 |  | 71 |  | 0.826 | -7 | -1.49 | -2 | 4.45 |  |  |  |  |  |  |  |
| Cc1ccc(C(=O)Nc2ccc(CN3CCN(C)CC3)c(C(F)(F)F)c2)cc1C#Cc1cnc2cccnn12 [ponatinib] |  | 92 |  | 99 |  | 89 | 3.23 |  |  |  |  |  |  |  |  |  |  |
| N#CC[C@H](C1CCCC1)n1cc(-c2ncnc3[nH]ccc23)cn1 [ruxolitinib] |  | 1.09 | 4.48 | 7 |  |  | 4.66 |  | -3.68 |  | -4.52 |  |  |  |  | 7.49 |  |
| CCN(CC)CCNC(=O)c1c(C)[nH]c(/C=C2\C(=O)Nc3ccc(F)cc32)c1C [sunitinib] |  | 96 |  | 85 |  |  |  |  |  |  |  |  |  |  |  |  |  |
| COc1cc2c(Nc3ccc(Br)cc3F)ncnc2cc1OCC1CCN(C)CC1 [vandetanib] | -0.931 | 69 | 81 |  |  | 4.74 | 27 | -3 | -1.77 | 4 |  |  |  |  |  |  |  |
